We go through six compounds from ChEMBL document CHEMBL6083238, “Design, synthesis and biological evaluation of novel benzocoumarin derivatives as potent inhibitors of MAO-B activity” (Bioorg Med Chem Lett, 2024).

For data set [1], the target named is T1, Amine oxidase [flavin-containing] B (Homo sapiens, UniProt P27338).
T1 sequence (P27338 whole entry): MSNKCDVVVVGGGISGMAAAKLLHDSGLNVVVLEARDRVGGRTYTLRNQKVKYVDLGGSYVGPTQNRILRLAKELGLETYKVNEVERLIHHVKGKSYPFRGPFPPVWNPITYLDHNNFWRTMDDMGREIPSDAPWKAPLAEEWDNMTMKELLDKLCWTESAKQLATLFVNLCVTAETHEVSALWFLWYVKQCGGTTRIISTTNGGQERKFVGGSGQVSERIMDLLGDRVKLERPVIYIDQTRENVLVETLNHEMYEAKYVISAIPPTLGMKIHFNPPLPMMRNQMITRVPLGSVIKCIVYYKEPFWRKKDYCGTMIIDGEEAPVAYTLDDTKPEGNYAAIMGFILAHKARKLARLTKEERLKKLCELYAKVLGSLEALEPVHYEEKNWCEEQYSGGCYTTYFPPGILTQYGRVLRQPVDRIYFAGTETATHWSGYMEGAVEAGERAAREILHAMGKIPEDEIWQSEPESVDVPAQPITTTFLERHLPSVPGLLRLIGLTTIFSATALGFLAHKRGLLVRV
Description: Inhibition of human MAO-B using p-tyramine as substrate by amplex red staining based fluorometric analysis

Data set [2] addresses T2, MAO-A (amine oxidase [flavin-containing] A) (Homo sapiens, UniProt P21397).
T2 sequence (P21397 whole entry): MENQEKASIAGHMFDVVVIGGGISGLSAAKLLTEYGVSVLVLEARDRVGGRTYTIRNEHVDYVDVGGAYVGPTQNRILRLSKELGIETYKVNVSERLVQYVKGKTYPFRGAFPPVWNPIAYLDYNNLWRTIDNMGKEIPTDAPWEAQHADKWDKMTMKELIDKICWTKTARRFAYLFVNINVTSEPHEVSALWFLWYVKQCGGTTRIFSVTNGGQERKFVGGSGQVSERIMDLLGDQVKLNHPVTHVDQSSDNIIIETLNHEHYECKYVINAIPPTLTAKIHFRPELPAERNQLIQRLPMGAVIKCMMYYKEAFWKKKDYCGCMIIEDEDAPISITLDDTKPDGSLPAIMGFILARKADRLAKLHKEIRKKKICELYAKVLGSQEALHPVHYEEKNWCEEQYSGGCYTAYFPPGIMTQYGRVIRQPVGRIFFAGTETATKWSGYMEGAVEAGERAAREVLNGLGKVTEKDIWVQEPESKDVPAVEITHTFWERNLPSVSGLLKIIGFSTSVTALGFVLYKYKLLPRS
Put plainly: in vitro. To be noted: human MAO-A enzyme, probe p-tyramine.
Description: Inhibition of human MAO-A using p-tyramine as substrate at 100 uM by amplex red staining based fluorometric analysis relative to control

Data set [3] addresses T3, Amine oxidase [flavin-containing] A (Homo sapiens, UniProt P21397).
T3 sequence (P21397 whole entry): T2 sequence (P21397 whole entry)
Description: Inhibition of human MAO-A using p-tyramine as substrate by amplex red staining based fluorometric analysis

What is called IC50 is the concentration that inhibits the measured activity by half. Low values mean greater potency, high ones weaker potency. A word on the inhibition: it is the percentage by which the read-out fell short of the control. A lower inhibition goes with a weak effect. `COc1ccc(-c2cc3cc4ccccc4cc3oc2=O)cc1` gave an IC50 in data set [1] of 48.1 µM. In data set [2], this compound displayed an inhibition at 100 µM of 3.85%. Consider `CC(=O)Oc1ccc(-c2cc3ccc4ccccc4c3oc2=O)cc1OC(C)=O`, for which the IC50 in data set [3] is 78.3 µM; in data set [1] it was 13.9 µM.

The compound `COc1ccc(-c2cc3cc4ccccc4cc3oc2=O)cc1OC` had an IC50 in data set [1] of 1.41 µM. The compound further registered an inhibition at 100 µM in data set [2] of 36.6%. With `CC(=O)Oc1ccc(-c2cc3cc4ccccc4cc3oc2=O)cc1OC(C)=O`, the IC50 in data set [3] worked out at 97.2 µM; in data set [1], 54.4 µM. Take `COc1ccc(-c2cc3ccc4ccccc4c3oc2=O)cc1`: the inhibition at 100 µM in data set [2] is 15.3%. With `COc1ccc(-c2cc3ccc4ccccc4c3oc2=O)cc1OC`, the IC50 in data set [1] is 0.241 µM. For the same compound, the inhibition at 100 µM in data set [2] turned out to be 24%.
